According to ChEMBL document CHEMBL1155852, “Novel inhibitors of anthrax edema factor” (Bioorg Med Chem, 2008):
pIC50: −log10 of the molar value. The source made the active and inactive calls. The calls are words filed in the database; no cut-off is given here.

Assays:
[1] = molecular target: T1, Calmodulin-sensitive adenylate cyclase (Bacillus anthracis, UniProt P40136); experiment: Inhibition of Bacillus anthracis edema factor-induced cAMP secretion in mouse RAW264.7 cells after 4 hrs by ELISA; assay type: cell-based
T1 sequence (P40136 whole entry): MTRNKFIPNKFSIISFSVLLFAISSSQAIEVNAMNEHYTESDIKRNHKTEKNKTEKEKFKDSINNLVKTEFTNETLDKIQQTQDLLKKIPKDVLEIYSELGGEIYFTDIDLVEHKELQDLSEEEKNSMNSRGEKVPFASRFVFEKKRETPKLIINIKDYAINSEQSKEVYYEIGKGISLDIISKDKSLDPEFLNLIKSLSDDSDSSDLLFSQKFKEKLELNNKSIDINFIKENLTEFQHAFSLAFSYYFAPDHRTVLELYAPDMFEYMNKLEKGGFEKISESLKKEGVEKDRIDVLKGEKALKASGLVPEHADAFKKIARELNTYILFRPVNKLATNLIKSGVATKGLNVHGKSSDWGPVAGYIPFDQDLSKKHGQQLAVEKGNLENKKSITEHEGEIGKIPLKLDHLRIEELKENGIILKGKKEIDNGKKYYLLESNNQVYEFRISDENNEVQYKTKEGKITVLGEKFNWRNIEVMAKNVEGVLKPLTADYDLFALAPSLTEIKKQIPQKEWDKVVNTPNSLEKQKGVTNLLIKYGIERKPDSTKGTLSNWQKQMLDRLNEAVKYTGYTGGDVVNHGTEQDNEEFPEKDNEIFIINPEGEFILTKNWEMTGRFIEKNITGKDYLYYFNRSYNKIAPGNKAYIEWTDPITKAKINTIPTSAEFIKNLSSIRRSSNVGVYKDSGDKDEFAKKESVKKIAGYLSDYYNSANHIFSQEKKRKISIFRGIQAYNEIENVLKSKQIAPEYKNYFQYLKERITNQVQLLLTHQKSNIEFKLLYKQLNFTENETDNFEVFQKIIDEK

[2] = molecular target: T2, Calmodulin-sensitive adenylate cyclase (Bacillus anthracis) (UniProt P40136); experiment: Inhibition of Bacillus anthracis edema factor-induced cAMP secretion in mouse RAW264.7 cells at 100 uM after 4 hrs by ELISA; assay type: cell-based
T2 sequence (whole entry): T1 sequence (P40136 whole entry)

SMILES	pIC50 [1]	Activity [2]
O=C(O)c1ccc(/N=C/c2c3ccccc3cc3ccccc23)cc1O	5.07	–
O=C(O)c1cccc(NC(=O)c2cccc3c2C(=O)c2ccccc2-3)c1	5.74	–
CCCCC[C@H](O)/C=C/[C@H]1[C@H](n2ccnc2)CC(=O)[C@@H]1C/C=C\CCCC(=O)O	–	Active
COc1cccc([C@H]2Nc3ccc(C(=O)O)cc3[C@@H]3C=CC[C@H]23)c1	5.76	–
